Reference: patent US20260345619A1 (Principia Biopharma Inc., priority 2023, published 2026)

Assay: Asthma Quality of Life Questionnaire with Standardized Activities (AQLQ(S))
Format: in vivo, human
Description: The AQLQ(S) is a self-administered patient reported outcome to measure the functional impairments that are most troublesome to adolescents and adults ≥12 years of age as a result of their asthma.
Asthma Quality of Life Questionnaire with Standardized Activities (AQLQ(S)) self-administered (≥12 years)
The AQLQ(S) was designed as a self-administered patient reported outcome to measure the functional impairments that are most troublesome to adolescents and adults ≥12 years of age as a result of their asthma. The instrument is comprised of 32 items, each rated on a 7-point Likert scales from 1 to 7. The AQLQ(S) has 4 domains. The domains and the number of items in each domain are as follows: • Symptoms (12 items) • Activity limitation (11 items) • Emotional function (5 items) • Environmental stimuli (4 items)
A global score is calculated ranging from 1 to 7 and a score by domain. Higher scores indicate better quality of life. […] Patients were to complete the questionnaire in an electronic diary during on-site visits.
Secondary endpoints included pre-bronchodilator FEV1 change from baseline at EOT, ACQ-5 score change from baseline, and AQLQ score change from baseline. Other secondary and exploratory endpoints are described in Table 2.

[1] = 400 mg TID, observed/LOCF imputed, n=53, mITT

CC(C)(C=C(C#N)C(=O)N1CCC[C@@H](n2nc(-c3ccc(Oc4ccccc4)cc3F)c3c(N)ncnc32)C1)N1CCN(C2COC2)CC1 (mixture of isomers) [rilzabrutinib, (R)-2-[3-[4-amino-3-(2-fluoro-4-phenoxy-phenyl)pyrazolo[3,4-d]pyrimidin-1-yl]piperidine-1-carbonyl]-4-methyl-4-[4-(oxetan-3-yl)piperazin-1-yl]pent-2-enenitrile]
AQLQ global score change from baseline at Week 12, LS Mean Diff vs. placebo (400 mg TID, mITT, all others than low EOS and low FeNO): 0.35
AQLQ global score change from baseline at Week 12, LS Mean Diff vs. placebo (400 mg TID, mITT, atopic medical conditions: no): 0.37
AQLQ global score change from baseline at Week 12, LS Mean Diff vs. placebo (400 mg TID, mITT, atopic medical conditions: yes): 0.13
AQLQ global score change from baseline at Week 12, LS Mean Diff vs. placebo (400 mg TID, mITT, background ICS dose high): 0.26
AQLQ global score change from baseline at Week 12, LS Mean Diff vs. placebo (400 mg TID, mITT, background ICS dose medium): 0.31
AQLQ global score change from baseline at Week 12, LS Mean Diff vs. placebo (400 mg TID, mITT, baseline ACQ-5 score >2): 0.38
AQLQ global score change from baseline at Week 12, LS Mean Diff vs. placebo (400 mg TID, mITT, baseline ACQ-5 score ≤2): 0.29
AQLQ global score change from baseline at Week 12, LS Mean Diff vs. placebo (400 mg TID, mITT, baseline BMI <25 kg/m^2): 0.56
AQLQ global score change from baseline at Week 12, LS Mean Diff vs. placebo (400 mg TID, mITT, baseline BMI ≥25-<30 kg/m^2): 0.47
AQLQ global score change from baseline at Week 12, LS Mean Diff vs. placebo (400 mg TID, mITT, baseline BMI ≥30 kg/m^2): −0.01
AQLQ global score change from baseline at Week 12, LS Mean Diff vs. placebo (400 mg TID, mITT, baseline FEV1 reversibility <12%): 0.12
AQLQ global score change from baseline at Week 12, LS Mean Diff vs. placebo (400 mg TID, mITT, baseline FEV1 reversibility ≥12%): 0.32
AQLQ global score change from baseline at Week 12, LS Mean Diff vs. placebo (400 mg TID, mITT, baseline FeNO <25 ppb): 0.15
AQLQ global score change from baseline at Week 12, LS Mean Diff vs. placebo (400 mg TID, mITT, baseline FeNO <35 ppb): 0.18
AQLQ global score change from baseline at Week 12, LS Mean Diff vs. placebo (400 mg TID, mITT, baseline FeNO ≥25 ppb): 0.44
AQLQ global score change from baseline at Week 12, LS Mean Diff vs. placebo (400 mg TID, mITT, baseline FeNO ≥35 ppb): 0.45
AQLQ global score change from baseline at Week 12, LS Mean Diff vs. placebo (400 mg TID, mITT, baseline IgA <median 2190 mg/L): 0.50
AQLQ global score change from baseline at Week 12, LS Mean Diff vs. placebo (400 mg TID, mITT, baseline IgA ≥median 2190 mg/L): 0.08
AQLQ global score change from baseline at Week 12, LS Mean Diff vs. placebo (400 mg TID, mITT, baseline IgE <100 IU/mL): 0.46
AQLQ global score change from baseline at Week 12, LS Mean Diff vs. placebo (400 mg TID, mITT, baseline IgE <median 121.85 IU/mL): 0.60
AQLQ global score change from baseline at Week 12, LS Mean Diff vs. placebo (400 mg TID, mITT, baseline IgE ≥100 IU/mL): 0.16
AQLQ global score change from baseline at Week 12, LS Mean Diff vs. placebo (400 mg TID, mITT, baseline IgE ≥median 121.85 IU/mL): −0.02
AQLQ global score change from baseline at Week 12, LS Mean Diff vs. placebo (400 mg TID, mITT, baseline blood eosinophil level 1 <0.15 10^9/L): 0.07
AQLQ global score change from baseline at Week 12, LS Mean Diff vs. placebo (400 mg TID, mITT, baseline blood eosinophil level 1 ≥0.15-<0.3 10^9/L): 0.32
AQLQ global score change from baseline at Week 12, LS Mean Diff vs. placebo (400 mg TID, mITT, baseline blood eosinophil level 1 ≥0.3 10^9/L): 0.70
AQLQ global score change from baseline at Week 12, LS Mean Diff vs. placebo (400 mg TID, mITT, baseline blood eosinophil level 2 <0.3 10^9/L): 0.17
AQLQ global score change from baseline at Week 12, LS Mean Diff vs. placebo (400 mg TID, mITT, baseline blood eosinophil level 2 ≥0.3 10^9/L): 0.70
AQLQ global score change from baseline at Week 12, LS Mean Diff vs. placebo (400 mg TID, mITT, baseline percent predicted FEV1 <77%): 0.42
AQLQ global score change from baseline at Week 12, LS Mean Diff vs. placebo (400 mg TID, mITT, baseline percent predicted FEV1 <80%): 0.35
AQLQ global score change from baseline at Week 12, LS Mean Diff vs. placebo (400 mg TID, mITT, baseline percent predicted FEV1 ≥77%): 0.16
AQLQ global score change from baseline at Week 12, LS Mean Diff vs. placebo (400 mg TID, mITT, baseline percent predicted FEV1 ≥80%): 0.27
AQLQ global score change from baseline at Week 12, LS Mean Diff vs. placebo (400 mg TID, mITT, baseline pre-bronchodilator FEV1 <2.1955 L): 0.28
AQLQ global score change from baseline at Week 12, LS Mean Diff vs. placebo (400 mg TID, mITT, baseline pre-bronchodilator FEV1 ≥2.1955 L): 0.27
AQLQ global score change from baseline at Week 12, LS Mean Diff vs. placebo (400 mg TID, mITT, baseline weight <60 kg): −0.08
AQLQ global score change from baseline at Week 12, LS Mean Diff vs. placebo (400 mg TID, mITT, baseline weight ≥60-<90 kg): 0.41
AQLQ global score change from baseline at Week 12, LS Mean Diff vs. placebo (400 mg TID, mITT, baseline weight ≥90 kg): 0.17
AQLQ global score change from baseline at Week 12, LS Mean Diff vs. placebo (400 mg TID, mITT, female): 0.32
AQLQ global score change from baseline at Week 12, LS Mean Diff vs. placebo (400 mg TID, mITT, former smokers): −0.02
AQLQ global score change from baseline at Week 12, LS Mean Diff vs. placebo (400 mg TID, mITT, low EOS (<0.15) and low FeNO (<25)): 0.10
AQLQ global score change from baseline at Week 12, LS Mean Diff vs. placebo (400 mg TID, mITT, male): 0.15
AQLQ global score change from baseline at Week 12, LS Mean Diff vs. placebo (400 mg TID, mITT, never smokers): 0.34
AQLQ global score non-responders at Week 12, number [1]: 24
AQLQ global score non-responders at Week 12, percentage [1]: (45.3) (22/2)
participants with AQLQ improvement of at least 0.5 from baseline at Week 12 (400 mg TID, placebo 40.3%, p=0.0456): 54.7%
AQLQ(S) Activity limitation score, Mean (Week 4, 400 mg BID, mITT): 5.48
AQLQ(S) Activity limitation score, Median (Week 4, 400 mg BID, mITT): 5.55
AQLQ(S) Activity limitation score, change from baseline, LS Mean (Week 4, 400 mg BID, mITT): 0.72
AQLQ(S) Activity limitation score, change from baseline, Mean (Week 4, 400 mg BID, mITT): 0.73
AQLQ(S) Activity limitation score, change from baseline, Median (Week 4, 400 mg BID, mITT): 0.55
AQLQ(S) Emotional function score, Mean (Week 4, 400 mg BID, mITT): 5.85
AQLQ(S) Emotional function score, Median (Week 4, 400 mg BID, mITT): 6.40
AQLQ(S) Emotional function score, change from baseline, LS Mean (Week 4, 400 mg BID, mITT): 0.77
AQLQ(S) Emotional function score, change from baseline, Mean (Week 4, 400 mg BID, mITT): 0.61
AQLQ(S) Emotional function score, change from baseline, Median (Week 4, 400 mg BID, mITT): 0.40
AQLQ(S) Environmental stimuli score, Mean (Week 4, 400 mg BID, mITT): 5.13
AQLQ(S) Environmental stimuli score, change from baseline, LS Mean (Week 4, 400 mg BID, mITT): 0.60
AQLQ(S) Environmental stimuli score, change from baseline, Mean (Week 4, 400 mg BID, mITT): 0.67
AQLQ(S) Environmental stimuli score, change from baseline, Median (Week 4, 400 mg BID, mITT): 0.50
AQLQ(S) Global score, Mean (Week 4, 400 mg BID, mITT): 5.63
AQLQ(S) Global score, Median (Week 4, 400 mg BID, mITT): 5.69
AQLQ(S) Global score, change from baseline, LS Mean (Week 4, 400 mg BID, mITT): 0.80
AQLQ(S) Global score, change from baseline, Mean (Week 4, 400 mg BID, mITT): 0.73
AQLQ(S) Global score, change from baseline, Median (Week 4, 400 mg BID, mITT): 0.69
AQLQ(S) Symptoms score, Mean (Week 4, 400 mg BID, mITT): 5.83
AQLQ(S) Symptoms score, Median (Week 4, 400 mg BID, mITT): 6.00
AQLQ(S) Symptoms score, change from baseline, LS Mean (Week 4, 400 mg BID, mITT): 0.92
AQLQ(S) Symptoms score, change from baseline, Mean (Week 4, 400 mg BID, mITT): 0.80
AQLQ(S) Symptoms score, change from baseline, Median (Week 4, 400 mg BID, mITT): 0.75
AQLQ(S) Environmental stimuli score, change from baseline, LS Mean Diff vs. placebo (Week 4, 400 mg BID, mITT, 95% CI 0.02, 1.49): 0.76
AQLQ(S) Activity limitation score, change from baseline, LS Mean Diff vs. placebo (Week 4, 400 mg BID, mITT, 95% CI 0.26, 1.24): 0.75
AQLQ(S) Emotional function score, change from baseline, LS Mean Diff vs. placebo (Week 4, 400 mg BID, mITT, 95% CI 0.30, 1.74): 1.02
AQLQ(S) Global score, change from baseline, LS Mean Diff vs. placebo (Week 4, 400 mg BID, mITT, 95% CI 0.34, 1.34): 0.84
AQLQ(S) Symptoms score, change from baseline, LS Mean Diff vs. placebo (Week 4, 400 mg BID, mITT, 95% CI 0.41, 1.32): 0.86
